In patent US6071709A, “Nerve growth factor/receptor complex” (The United States of America as represented by the …, priority 1992, dated 2000):

B1: NT-3: NGF related neurotrophic factor neurotrophin-3; HPLC-purified from Genentech or as COS cell supernatant (protein, UniProt P20783 139-257, looked up)
Neurotrophin-3: YAEHKSHRGEYSVCDSESLWVTDKSSAIDIRGHQVTVLGEIKTGNSPVKQYFYETRCKEARPVKNGCRGIDDKHWNSQCKTSQTYVRALTSENNKLVGWRWIRIDTSCVCALSRKIGRT

How the values were obtained:
gp140^prototrk = target: T1, gp140^prototrk (Rattus norvegicus, UniProt P35739); assay: trk tyrosine phosphorylation in PC12 cells treated with NGF (32P labelling / Ptyr immunoblot of trk immunoprecipitates); assay type: cell-based; conditions: 15 min at 37° C., 100 ng/ml FGF or EGF, 100 nM insulin, 1 μg/ml PMA
T1 construct: tyrosine phosphorylation in response to NGF addition to PC12 cells; endogenous in cells; host or cells: PC12 cells
Method: FIGS. 1A-C show the tyrosine phosphorylation of gp140trk in PC12 cells and trk-expressing NIH-3T3 cells treated with NGF. FIG. 1A, gp140trk immunoprecipitated from PC12 cells or trk-expressing 3T3 cells labeled with ^32 P-orthophosphate. Immunoprecipitates were prepared with rabbit anti-trk antisera 43-4 (D. Martin-Zanca et al., Mol Cell. Biol. 9:24-33 (1989)) from lysates prepared from 3T3 cells expressing the rat trk gene (trk 3T3) (lane 1) or PC12 cells treated for 5 min with 100 ng/ml NGF at 37° C. (lanes 2 and 4) or mock treated (lane 3). The immunoprecipitate shown in lane 2 was prepared in the presence of the peptide used to generate the rabbit 43-4 trk antibody (Martin-Zanca et al., (1989)). Shown in FIG. 1B is the phosphoamino acid analysis of trk proteins phosphorylated in vitro in p140trk immunoprecipitates from NGF treated PC12 cells in vivo from NGF treated (+) or untreated (-) PC12 cells, or in vivo from trk 3T3 cells. The positions of phosphoserine (S), phosphothreonine (T), and phosphotyrosine (Y) are indicated. FIG. 1C, trk proteins from trk 3T3 cells phosphorylated […]. In lanes 1-3, gp140trk immunoprecipitates were probed with P-tyr antibodies. In lanes 4-6, gp140trk proteins were phosphorylated in vitro in kinase assays. Cells were treated with suramin (lanes 2 and 5) or with 500 ng/ml NGF for 10 min following suramin treatment. The band migrating at 110 kDa is a glycosylation precursor of gp140^prototrk (Martin-Zanca et al., (1989)). The band at the bottom of the figure is IgG. Molecular weight markers in kDa are indicated.
rtrk 3T3 cells were generated by CaPO4 mediated transfection of a rat trk cDNA into NIH-3T3 cells. Rat trk cDNAs were obtained from an embryonic rat DRG cDNA library. The longest trk cDNA obtained (2.4 kbp) was missing approximately 150 bp of the coding region as compared to available mouse and human trk sequence. The missing bases plus minimal (~50 bp) 5' flanking non-coding sequences were replaced from mouse first coding exon sequences and the reconstructed gene was placed downstream of an MSV-LTR. PC12 cells or rtrk 3T3 cells (2×10^7) were labeled with ^32 P orthophosphate (1 mCi.ml in 4 ml) for 4 hr at 37° C. Cells were treated with NGF for the indicated times, washed, lysed in buffer containing 1% NP40, and the lysates immunoprecipitated with trk antibody 43-4 (D. R. Kaplan et al., Cell 61:125-133 (1990)) and electrophoresed on 7.5% SDS-PAGE gels as previously described (Kaplan et al., (1990)). For b, the phosphorylated trk bands were eluted from the gel and phosphoamino acid analysis performed as described (B. M. Sefton et al., J. Cell 24:165-174 (1981)). gp140trk protein from NGF treated PC12 cells was phosphorylated in vitro. For c, rtrk 3T3 cells were treated with 1 mM suramin in Dulbecco's Modified Eagle Medium (DMEM) for 2 h or mock treated. Following extensive washing of the cells with DMEM, NGF was added for the time indicated. Cells were lysed and the lysates were immunoprecipitated with trk antibody. Immunoprecipitates were either subjected to immunoblot analysis with the phosphotyrosine (Ptyr) monoclonal antibody 4G10 (Lanes 1-3), or were analyzed in kinase assays. (D. K. Morrison, et al. Cell 58:649-657 (1989) and Kaplan et al., (1990)). Similar amounts of trk protein were present in each lane.
FIGS. 2A-C. Time course, growth factor specificity, and dose response of trk tyrosine phosphorylation in PC12 cells. A, Time course of trk tyrosine phosphorylation. Cells (2×10^7) were treated with 50 ng/ml NGF at 37° C. B, Effects of growth and differentiation factors on trk tyrosine phosphorylation. Cells were treated with 100 ng/ml NGF, 100 ng/ml basic fibroblast growth factor (FGF) (Boehringer Mannheim Biochemicals), 100 ng/ml epidermal growth factor (EGF) (Upstate Biotechnology, Inc.), 100 nM insulin (Sigma), or 1 μg/ml phorbal 12-myristate […] (PMA) (Sigma) for 15 min. at 37° C. C, dose response of trk tyrosine phosphorylation. […]

p140^prototrk = p140^prototrk (Rattus norvegicus, UniProt P35739); assay: trk tyrosine phosphorylation in rtrk-3T3 cells, suramin treatment followed by NGF (in vivo and immune complex kinase assays); assay type: cell-based; conditions: rtrk-3T3 cells, 1 mM suramin for 2 h
Method: rtrk 3T3 cells were generated by CaPO4 mediated transfection of a rat trk cDNA into NIH-3T3 cells. […] PC12 cells or rtrk 3T3 cells (2×10^7) were labeled with ^32 P orthophosphate (1 mCi.ml in 4 ml) for 4 hr at 37° C. […] For c, rtrk 3T3 cells were treated with 1 mM suramin in Dulbecco's Modified Eagle Medium (DMEM) for 2 h or mock treated. Following extensive washing of the cells with DMEM, NGF was added for the time indicated. Cells were lysed and the lysates were immunoprecipitated with trk antibody. Immunoprecipitates were either subjected to immunoblot analysis with the phosphotyrosine (Ptyr) monoclonal antibody 4G10 (Lanes 1-3), or were analyzed in kinase assays. […] Similar amounts of trk protein were present in each lane.

gp145^trkB = gp145^trkB tyrosine phosphorylation in trkB-expressing NIH 3T3 cells (pJM8 lines), immunoprecipitation and α-Ptyr Western; assay type: cell-based, rat; conditions: for time to detection of trkB tyrosine phosphorylation / time to maximal levels of trkB tyrosine phosphorylation / concentration giving maximal gp145^trkB phosphorylation: pJM8-3 cells; for time to detection of trkB tyrosine phosphorylation / time to maximal levels of trkB tyrosine phosphorylation: 100 ng/ml; for concentration giving maximal gp145^trkB phosphorylation: dose response 0.1 to 250 ng/ml; for tyrosine phosphorylation of gp145^trkB: pJM8 trkB-expressing NIH 3T3 cells, 100 ng/ml factor, 5 min
Method: A 4.8 kb cDNA encompassing the coding domain of rat trkB (Middlemas et al., (1991)) was cloned into the pMEX plasmid (pJM8) downstream of the MSV promoter. NIH 3T3 cells were cotransfected with the pJM8 plasmid and a plasmid containing the neomycin phosphotransferase gene (L. F. Parada et al., Nature 312:649-651 (1984)), and G418-resistant colonies were selected. PC12 cells (Greene and Tischler, 1976) were grown in DMEM with 10% horse serum and 5% fetal calf serum. NIH 3T3 cells and the derivative cells lines were maintained in DMEM medium containing 10% calf serum. All cells were maintained in a humidified incubator at 37° C. in 5% CO2.
Approximately 10^7 cells were treated at 37° C. for 5 min with 100 ng/ml growth factors or at the concentrations and lengths of time noted in the text. NP-40 plate lysis and gp145^trkB immunoprecipitation with anti-serum 443 were performed as previously described (Kaplan et al., (1990), (1991)). The phosphotyrosine content was analyzed by Western transfer using monoclonal antibody 4G10 as previously described (Morrison et al., (1989)).
The product of the trk proto-oncogene (gp140^proto-trk) is tyrosine phosphorylated in response to NGF in PC12 cells, NGF-responsive neuroblastoma cells, heterologous fibroblasts and Xenopus oocytes (Kaplan et al., (1991); A. R. Nebreda et al., Science 252:558-560 (1991); Klein et al., (1991)). Next it was examined whether NGF elicited tyrosine phosphorylation of gp145^trkB in trkB-expressing NIH 3T3 cells. Cell line pJM8-3 was treated with high concentrations of NGF (100 ng/ml) for 5 minutes. The cells were lysed, immunoprecipitated with anti-trkB antiserum 443, transferred to nitrocellulose filters and probed with anti-phosphotyrosine (α-Ptyr) antibodies. As a negative control, untransfected NIH-3T3 cells were treated in parallel, while PC12 cells were used as a positive control for NGF responsiveness (Kaplan et al., (1991)).
BDNF and NT-3 are neurotrophic factors that display many functional and structural features that are reminiscent of NGF. The genes encoding BDNF and NT-3 have recently been cloned and used to express high levels of the biologically active factors in pure form (A. Rosenthal et al., Neuron 4:773 (1990)). It was tested whether these NGF-related neurotrophic factors would stimulate phosphorylation of the trkB glycoprotein by exposing the pJM-8 cell lines to 100 ng/ml of NGF, BDNF, or NT-3 (~4 nM) for 5 minutes. The cells were then lysed and the lysates incubated with a trkB anti-peptide antiserum (443) with or without excess peptide. After transfer to nitrocellulose filters, the trkB proteins were probed with an anti-phosphotyrosine (α-ptyr) monoclonal antibody (FIG. 10) (Kaplan et al. (1991)). […] Thus, both neurotrophic factors NT-3 and BDNF can elicit tyrosine phosphorylation of gp145^trkB in a manner similar to that observed for NGF stimulation of the trk receptor. Similar results have been obtained with NT-3 and BDNF in Rat2 cells expressing trkB.
Having detected gp145^trkB phosphorylation in response to BDNF and NT-3, it was next determined whether unrelated polypeptide growth factors were capable of eliciting a similar response. Platelet-derived growth factor (PDGF; 100 ng/ml), epidermal growth factor (EGF; 100 ng/ml), insulin (100 ng/ml), and basic fibroblast growth factor (bFGF; 100 ng/ml), were added independently to exponentially growing cultures of pJM8-3 cells.
The previous studies were done in the presence of high concentrations of neurotrophic factors. Dose response experiments were next performed to determine the range of concentrations at which phosphorylation of the trkB receptor was stimulated by NT-3 or BDNF. Cells were incubated with quantities of NT-3 or BDNF ranging from 0.1 ng/ml to 250 ng/ml and treated as described in FIG. 12. […]

trkB = assay: Growth factor stimulation of trkB transfected 3T3 cells (pJM8-3), COS cell supernatants, Ptyr blot; assay type: cell-based; conditions: trkB-expressing 3T3 cells (pJM8-3), 100 μl/ml NT-3 COS cell supernatant, 10 minutes at 37° C.
Method: To study the expression of trkB in transfected cell lines, full length trkB cDNAs were cloned into CMV and MuLV LTR expression vectors and transfected into NIH-3T3 fibroblasts, PC 12 pheochromocytoma cells and NR18 cells (a derivative of PC12 cells). Stable G418 resident clones were picked and expanded. Assays to detect cell lines expressing trkB were performed by detergent lysis of the cells, followed by WGA-sepharose adsorption. The adsorbed material was analyzed by SDS-PAGE on 7.5% gels, transferred to nitrocellulose and probed with antisera 442, a trkB specific rabbit antisera. The Western blots contained a WGA-sepharose extract of mouse brain as a control and BIORAD prestained molecular weight standards (200, 116, 80 and 43 kDa).
To study growth factor stimulation in cells transfected with trkB, NIH 3T3 trk transfected 3T3 (pJM7-23), trkB transfected 3T3 cells (pJM8-3) and non-transfected 3T3 cells (control cells) were exposed to media or media containing 100 μl/ml of NGF-COS cell supernatant, 100 μl/ml NT-3 COS cell supernatant, 5 μl/ml human platelet extract, or 50 μl/ml human platelet extract, for 10 minutes at 37° C. The plates were rinsed, lysed, and the trk or trkB was immunoprecipitated with rabbit antisera 443 and protein A Sepharose in the presence or absence of 10 μg/ml blocking peptide. […]

T1 sequence (P35739 33-799): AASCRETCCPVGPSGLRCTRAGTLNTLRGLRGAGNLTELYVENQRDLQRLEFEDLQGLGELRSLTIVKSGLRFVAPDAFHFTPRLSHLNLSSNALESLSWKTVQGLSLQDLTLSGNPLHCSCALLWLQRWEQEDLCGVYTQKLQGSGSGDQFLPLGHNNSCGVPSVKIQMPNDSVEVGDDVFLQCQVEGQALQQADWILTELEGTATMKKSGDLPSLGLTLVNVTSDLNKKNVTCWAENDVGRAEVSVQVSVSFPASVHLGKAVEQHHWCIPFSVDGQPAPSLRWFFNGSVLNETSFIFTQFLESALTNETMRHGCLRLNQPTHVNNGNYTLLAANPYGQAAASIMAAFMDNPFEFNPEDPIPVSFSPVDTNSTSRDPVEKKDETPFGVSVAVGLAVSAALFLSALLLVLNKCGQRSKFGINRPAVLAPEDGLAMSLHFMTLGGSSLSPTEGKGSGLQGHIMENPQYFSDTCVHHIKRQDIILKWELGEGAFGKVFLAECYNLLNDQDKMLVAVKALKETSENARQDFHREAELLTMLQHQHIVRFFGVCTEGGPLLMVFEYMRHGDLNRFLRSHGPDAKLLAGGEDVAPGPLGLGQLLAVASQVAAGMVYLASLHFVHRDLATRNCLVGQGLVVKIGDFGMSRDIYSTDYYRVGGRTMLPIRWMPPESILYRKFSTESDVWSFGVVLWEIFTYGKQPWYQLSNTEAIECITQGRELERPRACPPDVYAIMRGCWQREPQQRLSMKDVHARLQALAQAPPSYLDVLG
p140^prototrk, sequence (P35739 33-799): as above

Row | Molecule | induction of trk tyrosine phosphorylation by growth and differentiation factors (gp140^prototrk) | tyrosine phosphorylation of gp145^trkB (gp145^trkB) | also measured
1 | CCCCCCCCCCCCCC(=O)O[C@@H]1[C@@H](C)[C@@]2(O)[C@@H](C=C(CO)C[C@]3(O)C(=O)C(C)=C[C@@H]23)[C@@H]2C(C)(C)[C@]12OC(C)=O [PMA, phorbal 12-myristate 12-acetate, reference compound] | failed to induce |  | 
2 | Cc1ccc(C(=O)Nc2ccc(S(=O)(=O)O)c3cc(S(=O)(=O)O)cc(S(=O)(=O)O)c23)cc1NC(=O)c1cccc(NC(=O)Nc2cccc(C(=O)Nc3cc(C(=O)Nc4ccc(S(=O)(=O)O)c5cc(S(=O)(=O)O)cc(S(=O)(=O)O)c45)ccc3C)c2)c1 [suramin, reference compound] |  |  | tyrosine phosphorylation of p140^prototrk in vivo and in immune complex kinase assays (p140^prototrk): markedly reduced
3 | BDNF: NGF related neurotrophic factor, brain-derived neurotrophic factor |  | strong phosphorylation | time to detection of trkB tyrosine phosphorylation (gp145^trkB): one; time to maximal levels of trkB tyrosine phosphorylation (gp145^trkB): ≤ 5 min; concentration giving maximal gp145^trkB phosphorylation (gp145^trkB): 50 ng/mL
4 | EGF: epidermal growth factor (Upstate Biotechnology, Inc.) [reference compound] | failed to induce | No tyrosine-phosphorylated gp145^trkB was detected | 
5 | PDGF [reference compound] |  | No tyrosine-phosphorylated gp145^trkB was detected | 
6 | basic FGF: basic fibroblast growth factor (Boehringer Mannheim Biochemicals) [reference compound] | failed to induce | No tyrosine-phosphorylated gp145^trkB was detected | 
7 | insulin: insulin (Sigma) [reference compound] | failed to induce | No tyrosine-phosphorylated gp145^trkB was detected | 
8 | B1 |  | strong phosphorylation | time to detection of trkB tyrosine phosphorylation (gp145^trkB): one; time to maximal levels of trkB tyrosine phosphorylation (gp145^trkB): ≤ 5 min; concentration giving maximal gp145^trkB phosphorylation (gp145^trkB): 50 ng/mL; stimulation of trkB tyrosine phosphorylation (trkB): stimulated
